Laboratory results as given in ChEMBL document CHEMBL3991601, “The target landscape of clinical kinase drugs” (Science, 2017).
Active and inactive are the calls of the source. Rule as the data show it, for most assays here: actives have a measured Kd and inactives only a lower limit.

What was measured:
[1] = target: T1, Phosphorylase b kinase gamma catalytic chain, liver/testis isoform (Homo sapiens, UniProt P15735)
T1 sequence (P15735 whole entry): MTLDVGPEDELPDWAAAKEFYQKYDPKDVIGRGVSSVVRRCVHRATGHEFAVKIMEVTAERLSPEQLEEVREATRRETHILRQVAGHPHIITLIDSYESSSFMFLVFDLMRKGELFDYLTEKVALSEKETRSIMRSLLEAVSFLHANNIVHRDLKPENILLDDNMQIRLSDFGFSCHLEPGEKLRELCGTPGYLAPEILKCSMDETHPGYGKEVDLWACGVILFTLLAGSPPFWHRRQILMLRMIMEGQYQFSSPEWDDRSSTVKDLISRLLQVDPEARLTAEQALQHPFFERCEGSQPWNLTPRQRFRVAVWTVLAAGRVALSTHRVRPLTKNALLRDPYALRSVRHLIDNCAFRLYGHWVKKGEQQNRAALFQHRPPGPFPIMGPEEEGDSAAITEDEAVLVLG

[2] = target: Deoxycytidine kinase (Homo sapiens, UniProt P27707)
Sequence of Deoxycytidine kinase (P27707 whole entry): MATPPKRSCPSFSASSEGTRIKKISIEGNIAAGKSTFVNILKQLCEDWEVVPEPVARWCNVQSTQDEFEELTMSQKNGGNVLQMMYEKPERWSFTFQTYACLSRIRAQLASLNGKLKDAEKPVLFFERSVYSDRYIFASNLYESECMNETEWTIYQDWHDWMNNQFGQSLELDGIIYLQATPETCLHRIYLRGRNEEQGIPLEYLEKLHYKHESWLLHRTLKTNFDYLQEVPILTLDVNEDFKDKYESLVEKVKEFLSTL

[3] = target: Tyrosine-protein kinase JAK1 (Homo sapiens, UniProt P23458)
Sequence of Tyrosine-protein kinase JAK1 (P23458 whole entry): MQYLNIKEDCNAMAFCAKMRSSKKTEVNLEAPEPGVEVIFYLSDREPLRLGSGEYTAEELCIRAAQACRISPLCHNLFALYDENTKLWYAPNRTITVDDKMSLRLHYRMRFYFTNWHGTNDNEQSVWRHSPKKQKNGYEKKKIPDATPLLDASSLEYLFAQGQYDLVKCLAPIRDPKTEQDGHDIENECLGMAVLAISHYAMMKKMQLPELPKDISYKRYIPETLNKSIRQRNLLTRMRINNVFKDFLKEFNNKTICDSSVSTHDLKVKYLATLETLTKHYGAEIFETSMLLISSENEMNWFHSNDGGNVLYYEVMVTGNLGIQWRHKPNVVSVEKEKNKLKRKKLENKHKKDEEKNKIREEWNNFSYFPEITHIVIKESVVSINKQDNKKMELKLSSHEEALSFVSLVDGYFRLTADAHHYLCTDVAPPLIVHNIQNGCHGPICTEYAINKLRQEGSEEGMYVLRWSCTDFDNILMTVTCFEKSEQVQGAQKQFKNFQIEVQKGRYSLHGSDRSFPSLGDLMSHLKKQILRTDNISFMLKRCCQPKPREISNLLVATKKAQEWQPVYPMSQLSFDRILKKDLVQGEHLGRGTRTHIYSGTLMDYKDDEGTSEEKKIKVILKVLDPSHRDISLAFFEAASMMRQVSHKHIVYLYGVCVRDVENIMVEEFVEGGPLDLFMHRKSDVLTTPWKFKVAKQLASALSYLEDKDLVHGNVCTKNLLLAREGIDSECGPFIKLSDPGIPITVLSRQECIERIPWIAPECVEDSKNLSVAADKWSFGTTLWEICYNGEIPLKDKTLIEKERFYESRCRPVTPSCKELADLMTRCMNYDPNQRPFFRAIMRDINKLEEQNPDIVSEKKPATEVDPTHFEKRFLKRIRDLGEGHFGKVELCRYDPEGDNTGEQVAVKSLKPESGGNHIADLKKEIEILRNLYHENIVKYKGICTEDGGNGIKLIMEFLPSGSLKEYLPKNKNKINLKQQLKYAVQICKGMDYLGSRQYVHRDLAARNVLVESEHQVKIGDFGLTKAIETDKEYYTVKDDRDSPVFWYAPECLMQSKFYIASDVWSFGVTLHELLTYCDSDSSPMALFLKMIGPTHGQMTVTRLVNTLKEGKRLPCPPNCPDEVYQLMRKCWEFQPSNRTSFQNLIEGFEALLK

[4] = target: Ephrin type-A receptor 5 (Homo sapiens, UniProt P54756)
Sequence of Ephrin type-A receptor 5 (P54756 whole entry): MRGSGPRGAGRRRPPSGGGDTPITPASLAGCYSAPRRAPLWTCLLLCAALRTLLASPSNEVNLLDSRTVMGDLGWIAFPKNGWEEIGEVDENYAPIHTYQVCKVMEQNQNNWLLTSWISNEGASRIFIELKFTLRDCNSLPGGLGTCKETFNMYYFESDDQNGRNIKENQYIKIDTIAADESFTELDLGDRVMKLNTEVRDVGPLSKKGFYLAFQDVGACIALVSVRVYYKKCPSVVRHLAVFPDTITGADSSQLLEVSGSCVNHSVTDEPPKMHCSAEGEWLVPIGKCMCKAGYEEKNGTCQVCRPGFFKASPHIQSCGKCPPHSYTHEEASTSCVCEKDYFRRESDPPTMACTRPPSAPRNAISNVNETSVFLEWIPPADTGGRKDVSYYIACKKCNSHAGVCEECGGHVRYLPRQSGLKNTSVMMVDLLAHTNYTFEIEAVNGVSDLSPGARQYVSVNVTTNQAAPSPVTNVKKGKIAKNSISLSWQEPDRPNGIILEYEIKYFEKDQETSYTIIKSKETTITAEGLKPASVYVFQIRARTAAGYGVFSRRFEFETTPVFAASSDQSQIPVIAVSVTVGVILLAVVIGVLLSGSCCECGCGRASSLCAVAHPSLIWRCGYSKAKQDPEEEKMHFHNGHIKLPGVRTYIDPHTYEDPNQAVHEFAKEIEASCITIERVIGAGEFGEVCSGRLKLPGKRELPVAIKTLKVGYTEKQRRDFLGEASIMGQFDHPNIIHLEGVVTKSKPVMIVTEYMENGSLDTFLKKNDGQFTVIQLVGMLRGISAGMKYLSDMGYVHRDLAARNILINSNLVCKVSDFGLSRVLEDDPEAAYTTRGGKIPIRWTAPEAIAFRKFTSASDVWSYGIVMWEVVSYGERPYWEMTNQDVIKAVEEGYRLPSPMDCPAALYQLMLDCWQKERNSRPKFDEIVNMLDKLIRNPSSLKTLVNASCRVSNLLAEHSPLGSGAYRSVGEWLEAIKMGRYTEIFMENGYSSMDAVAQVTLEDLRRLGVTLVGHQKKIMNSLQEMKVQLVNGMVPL

[5] = target: T2, Cyclin-G-associated kinase (Homo sapiens, UniProt O14976)
T2 sequence (O14976 whole entry): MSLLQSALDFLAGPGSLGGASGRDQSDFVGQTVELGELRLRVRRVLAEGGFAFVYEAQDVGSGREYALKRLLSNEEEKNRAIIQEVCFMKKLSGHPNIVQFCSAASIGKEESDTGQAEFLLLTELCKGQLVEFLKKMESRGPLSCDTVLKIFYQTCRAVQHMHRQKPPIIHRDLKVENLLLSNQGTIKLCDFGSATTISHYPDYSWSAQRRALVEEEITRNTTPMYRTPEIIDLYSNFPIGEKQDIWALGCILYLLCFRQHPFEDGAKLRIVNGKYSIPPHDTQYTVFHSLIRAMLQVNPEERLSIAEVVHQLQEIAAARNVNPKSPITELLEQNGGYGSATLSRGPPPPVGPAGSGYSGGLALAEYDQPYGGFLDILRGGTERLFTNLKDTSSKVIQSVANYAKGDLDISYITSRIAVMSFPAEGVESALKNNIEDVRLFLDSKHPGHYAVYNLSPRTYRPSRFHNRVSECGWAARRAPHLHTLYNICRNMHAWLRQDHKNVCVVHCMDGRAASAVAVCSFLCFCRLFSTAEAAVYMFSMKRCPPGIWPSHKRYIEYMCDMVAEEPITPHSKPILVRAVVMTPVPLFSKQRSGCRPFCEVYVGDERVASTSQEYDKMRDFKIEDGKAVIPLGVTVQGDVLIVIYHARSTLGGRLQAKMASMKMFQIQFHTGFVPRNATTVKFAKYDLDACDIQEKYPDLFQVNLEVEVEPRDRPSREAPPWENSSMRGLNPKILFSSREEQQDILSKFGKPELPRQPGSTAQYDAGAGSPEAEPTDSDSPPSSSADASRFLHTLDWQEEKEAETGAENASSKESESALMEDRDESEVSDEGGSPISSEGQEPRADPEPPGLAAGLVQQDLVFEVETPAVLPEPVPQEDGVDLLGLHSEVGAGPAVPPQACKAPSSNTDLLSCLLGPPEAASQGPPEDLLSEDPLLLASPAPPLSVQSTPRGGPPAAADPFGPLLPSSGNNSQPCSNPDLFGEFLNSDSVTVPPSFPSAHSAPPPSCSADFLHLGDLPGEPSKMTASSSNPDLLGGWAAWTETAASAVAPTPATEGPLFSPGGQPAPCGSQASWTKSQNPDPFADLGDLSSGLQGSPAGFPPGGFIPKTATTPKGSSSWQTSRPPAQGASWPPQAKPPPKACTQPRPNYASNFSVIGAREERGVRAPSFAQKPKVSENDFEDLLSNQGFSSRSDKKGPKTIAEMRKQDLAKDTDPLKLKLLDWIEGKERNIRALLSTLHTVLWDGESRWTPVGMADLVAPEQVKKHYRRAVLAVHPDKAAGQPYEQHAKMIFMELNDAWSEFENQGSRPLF

[6] = target: T3, Mitogen-activated protein kinase kinase kinase kinase 2 (Homo sapiens, UniProt Q12851)
T3 sequence (Q12851 whole entry): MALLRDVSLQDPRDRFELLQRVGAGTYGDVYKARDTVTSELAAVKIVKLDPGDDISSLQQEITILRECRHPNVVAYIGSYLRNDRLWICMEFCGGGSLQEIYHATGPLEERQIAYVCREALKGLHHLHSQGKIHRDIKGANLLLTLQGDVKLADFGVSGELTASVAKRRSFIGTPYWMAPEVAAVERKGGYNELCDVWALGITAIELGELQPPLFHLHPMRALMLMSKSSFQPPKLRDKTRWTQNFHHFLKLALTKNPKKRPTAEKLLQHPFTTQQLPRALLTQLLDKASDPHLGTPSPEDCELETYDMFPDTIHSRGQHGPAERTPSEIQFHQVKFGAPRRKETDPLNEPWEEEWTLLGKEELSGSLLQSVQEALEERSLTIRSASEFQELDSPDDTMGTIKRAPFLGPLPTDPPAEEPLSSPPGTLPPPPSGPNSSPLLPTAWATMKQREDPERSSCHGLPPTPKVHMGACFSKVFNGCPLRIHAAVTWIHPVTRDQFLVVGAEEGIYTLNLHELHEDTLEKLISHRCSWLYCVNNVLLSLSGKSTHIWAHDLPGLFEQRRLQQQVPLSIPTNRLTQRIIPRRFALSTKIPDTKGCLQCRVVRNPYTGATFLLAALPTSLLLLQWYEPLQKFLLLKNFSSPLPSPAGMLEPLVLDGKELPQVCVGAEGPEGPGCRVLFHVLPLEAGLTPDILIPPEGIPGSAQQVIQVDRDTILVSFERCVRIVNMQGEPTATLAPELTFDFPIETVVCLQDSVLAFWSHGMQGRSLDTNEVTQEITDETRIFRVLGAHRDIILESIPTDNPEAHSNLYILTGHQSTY

[7] = target: Casein kinase II subunit alpha' (Homo sapiens, UniProt P19784)
Sequence of Casein kinase II subunit alpha' (P19784 whole entry): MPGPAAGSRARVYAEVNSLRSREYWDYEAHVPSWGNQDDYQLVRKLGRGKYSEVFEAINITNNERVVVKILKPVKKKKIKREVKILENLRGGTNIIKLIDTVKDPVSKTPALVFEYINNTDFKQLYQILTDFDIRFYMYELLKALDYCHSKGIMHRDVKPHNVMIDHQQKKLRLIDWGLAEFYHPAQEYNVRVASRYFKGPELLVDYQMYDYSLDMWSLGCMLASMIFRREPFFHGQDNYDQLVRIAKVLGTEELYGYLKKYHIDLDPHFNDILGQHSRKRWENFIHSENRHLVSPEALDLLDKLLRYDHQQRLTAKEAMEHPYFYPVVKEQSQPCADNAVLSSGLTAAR
Also: in the data inactive means no Kd found up to 30 µM.

| Structure (SMILES) | Kd [1] | Kd [2] | Kd [3] | Kd [4] | Kd [5] | Kd [6] | Kd [7] |
| --- | --- | --- | --- | --- | --- | --- | --- |
| COc1cc(N2CCC(N3CCN(C)CC3)CC2)ccc1Nc1ncnc(Nc2ccccc2S(=O)(=O)C(C)C)n1 [ASP-3026] | > 30 µM (inactive) | > 30 µM (inactive) | > 30 µM (inactive) | > 30 µM (inactive) | 2.82 µM (active) | > 30 µM (inactive) | > 30 µM (inactive) |
| O=c1sn(-c2cccc3ccccc23)c(=O)n1Cc1ccccc1 [TIDEGLUSIB] | > 30 µM (inactive) | > 30 µM (inactive) | > 30 µM (inactive) | > 30 µM (inactive) | > 30 µM (inactive) | > 30 µM (inactive) | > 30 µM (inactive) |
| CNS(=O)(=O)Nc1nccc(Cc2c(C)c3ccc(Oc4ncccn4)cc3oc2=O)c1F [AVUTOMETINIB] | > 30 µM (inactive) | > 30 µM (inactive) | > 30 µM (inactive) | > 30 µM (inactive) | > 30 µM (inactive) | > 30 µM (inactive) | > 30 µM (inactive) |
| C[C@@H](Nc1cc(F)cc(F)c1)c1cc(C(=O)N(C)C)cc2c(=O)cc(N3CCOCC3)oc12 [AZD-8186] | > 30 µM (inactive) | > 30 µM (inactive) | > 30 µM (inactive) | > 30 µM (inactive) | > 30 µM (inactive) | > 30 µM (inactive) | > 30 µM (inactive) |
| Cc1ccc(S(=O)(=O)Nc2nc3ccccc3nc2Nc2ccc3nsnc3c2)cc1 | > 30 µM (inactive) | > 30 µM (inactive) | > 30 µM (inactive) | > 30 µM (inactive) | > 30 µM (inactive) | > 30 µM (inactive) | > 30 µM (inactive) |
| CN1CCC(CNc2ccc3ncc(-c4cccc(OC(F)(F)F)c4)n3n2)CC1 [SGI-1776] | > 30 µM (inactive) | > 30 µM (inactive) | > 30 µM (inactive) | > 30 µM (inactive) | 8.63 µM (active) | > 30 µM (inactive) | 7.92 µM (active) |
